Experimental data taken from ChEMBL document CHEMBL5303573, “Mapping human microbiome drug metabolism by gut bacteria and their genes” (Nature, 2019).

Columns and labels:
[1] = The drug is tested on Collinsella intestinalis strain: DSM13280 for biotransformation. The drug concentrations were measured before and after a 12-h incubation by liquid-chromatography-coupled mass spectrometry (LC–MS); conditions: 2 µM
[2] = The drug is tested on Bacteroides fragilis strain: HMW615 for biotransformation. The drug concentrations were measured before and after a 12-h incubation by liquid-chromatography-coupled mass spectrometry (LC–MS); conditions: 2 µM
[3] = The drug is tested on Bacteroides fragilis strain: ATCC43859 for biotransformation. The drug concentrations were measured before and after a 12-h incubation by liquid-chromatography-coupled mass spectrometry (LC–MS); conditions: 2 µM
[4] = The drug is tested on Odoribacter splanchnicus strain: fecal isolate for biotransformation. The drug concentrations were measured before and after a 12-h incubation by liquid-chromatography-coupled mass spectrometry (LC–MS); conditions: 2 µM
[5] = The drug is tested on Anaerococcus hydrogenalis strain: DSM7454 for biotransformation. The drug concentrations were measured before and after a 12-h incubation by liquid-chromatography-coupled mass spectrometry (LC–MS); conditions: 2 µM
[6] = The drug is tested on Blautia luti strain: DSM14534 for biotransformation. The drug concentrations were measured before and after a 12-h incubation by liquid-chromatography-coupled mass spectrometry (LC–MS); type: ADME; set-up: dose 2 uM, timepoint 0 vs 12 hours; conditions: 2 µM
[7] = The drug is tested on Clostridium asparagiforme strain: DSM15981 for biotransformation. The drug concentrations were measured before and after a 12-h incubation by liquid-chromatography-coupled mass spectrometry (LC–MS); type: ADME; set-up: dose 2 uM, timepoint 0 vs 12 hours; conditions: enterocloster asparagiformis, 2 µM
[8] = The drug is tested on Clostridium scindens strain: ATCC35704 for biotransformation. The drug concentrations were measured before and after a 12-h incubation by liquid-chromatography-coupled mass spectrometry (LC–MS); conditions: 2 µM
[9] = The drug is tested on Clostridium symbiosum strain: ATCC14940 for biotransformation. The drug concentrations were measured before and after a 12-h incubation by liquid-chromatography-coupled mass spectrometry (LC–MS); conditions: 2 µM
[10] = The drug is tested on Coprococcus comes strain: ATCC27758 for biotransformation. The drug concentrations were measured before and after a 12-h incubation by liquid-chromatography-coupled mass spectrometry (LC–MS); type: ADME; set-up: dose 2 uM, timepoint 0 vs 12 hours; conditions: 2 µM
[11] = The drug is tested on Dorea formicigenerans strain: ATCC27755 for biotransformation. The drug concentrations were measured before and after a 12-h incubation by liquid-chromatography-coupled mass spectrometry (LC–MS); conditions: 2 µM
[12] = The drug is tested on Eubacterium hallii strain: DSM3353 for biotransformation. The drug concentrations were measured before and after a 12-h incubation by liquid-chromatography-coupled mass spectrometry (LC–MS); conditions: anaerobutyricum hallii, 2 µM
[13] = The drug is tested on Ruminococcus gnavus strain: ATCC29149 for biotransformation. The drug concentrations were measured before and after a 12-h incubation by liquid-chromatography-coupled mass spectrometry (LC–MS); conditions: mediterraneibacter gnavus, 2 µM
[14] = The drug is tested on Edwardsiella tarda strain: ATCC23685 for biotransformation. The drug concentrations were measured before and after a 12-h incubation by liquid-chromatography-coupled mass spectrometry (LC–MS); conditions: 2 µM
[15] = bacteroides stercoris, 12 h, 2 µM
Description: The drug is tested on Bacteroides stercoris strain: ATCC43183 for biotransformation. The drug concentrations were measured before and after a 12-h incubation by liquid-chromatography-coupled mass spectrometry (LC–MS)

[16] = segatella copri, 12 h, 2 µM
Description: The drug is tested on Prevotella copri strain: DSM18205 for biotransformation. The drug concentrations were measured before and after a 12-h incubation by liquid-chromatography-coupled mass spectrometry (LC–MS)

[17] = akkermansia muciniphila, 12 h, 2 µM
Description: The drug is tested on Akkermansia muciniphila strain: ATCC BAA-835 for biotransformation. The drug concentrations were measured before and after a 12-h incubation by liquid-chromatography-coupled mass spectrometry (LC–MS)

[18] = The drug is tested on Providencia rettgeri strain: DSM1131 for biotransformation. The drug concentrations were measured before and after a 12-h incubation by liquid-chromatography-coupled mass spectrometry (LC–MS); type: ADME; set-up: dose 2 uM, timepoint 0 vs 12 hours; conditions: 2 µM
[19] = bacteroides fragilis, 12 h, 2 µM
Description: The drug is tested on Bacteroides fragilis strain: NCTC 9343 for biotransformation. The drug concentrations were measured before and after a 12-h incubation by liquid-chromatography-coupled mass spectrometry (LC–MS)

[20] = The drug is tested on Ruminococcus lactaris strain: ATCC29176 for biotransformation. The drug concentrations were measured before and after a 12-h incubation by liquid-chromatography-coupled mass spectrometry (LC–MS); conditions: 2 µM

Structure (SMILES)	Bacterial Biotransformation [1]	Bacterial Biotransformation [2]	Bacterial Biotransformation [3]	Bacterial Biotransformation [4]	Bacterial Biotransformation [5]	Bacterial Biotransformation [6]	Bacterial Biotransformation [7]	Bacterial Biotransformation [8]	Bacterial Biotransformation [9]	Bacterial Biotransformation [10]	Bacterial Biotransformation [11]	Bacterial Biotransformation [12]	Bacterial Biotransformation [13]	Bacterial Biotransformation [14]	Bacterial Biotransformation [15]	Bacterial Biotransformation [16]	Bacterial Biotransformation [17]	Bacterial Biotransformation [18]	Bacterial Biotransformation [19]	Bacterial Biotransformation [20]
CC(=O)O[C@H]1C(=O)[C@@]2(C)[C@H]([C@H](OC(=O)c3ccccc3)[C@]3(O)C[C@H](OC(=O)[C@H](O)[C@@H](NC(=O)c4ccccc4)c4ccccc4)C(C)=C1C3(C)C)[C@]1(OC(C)=O)CO[C@@H]1C[C@@H]2O [PACLITAXEL]	Compound NOT metabolized	Compound NOT metabolized	Compound NOT metabolized	Compound metabolized	Compound NOT metabolized	Compound NOT metabolized	Compound NOT metabolized	Compound NOT metabolized	Compound NOT metabolized	Compound NOT metabolized	Compound NOT metabolized	Compound NOT metabolized	Compound NOT metabolized	Compound NOT metabolized	Compound NOT metabolized	Compound NOT metabolized	Compound NOT metabolized			
COc1c2occc2cc2ccc(=O)oc12 [METHOXSALEN]		Compound metabolized	Compound metabolized	Compound metabolized	Compound NOT metabolized		Compound metabolized	Compound NOT metabolized	Compound metabolized	Compound metabolized	Compound NOT metabolized	Compound metabolized	Compound metabolized	Compound NOT metabolized		Compound NOT metabolized		Compound NOT metabolized	Compound metabolized	
OC(c1cc(C(F)(F)F)nc2c(C(F)(F)F)cccc12)C1CCCCN1 (centres undefined) [MEFLOQUINE]	Compound NOT metabolized	Compound NOT metabolized	Compound NOT metabolized			Compound NOT metabolized	Compound NOT metabolized	Compound NOT metabolized	Compound NOT metabolized	Compound NOT metabolized	Compound NOT metabolized	Compound NOT metabolized	Compound NOT metabolized		Compound NOT metabolized	Compound NOT metabolized		Compound NOT metabolized	Compound NOT metabolized	
CC(C)(C)NCC(O)COc1cccc2c1CC(O)C(O)C2 (centres undefined) [NADOLOL]	Compound NOT metabolized	Compound NOT metabolized	Compound NOT metabolized	Compound NOT metabolized	Compound NOT metabolized	Compound NOT metabolized	Compound NOT metabolized	Compound NOT metabolized	Compound NOT metabolized	Compound NOT metabolized	Compound NOT metabolized	Compound NOT metabolized	Compound NOT metabolized	Compound NOT metabolized	Compound NOT metabolized	Compound NOT metabolized	Compound NOT metabolized	Compound NOT metabolized		Compound NOT metabolized
COC(=O)[C@H]1[C@H]2C[C@@H]3c4[nH]c5cc(OC)ccc5c4CCN3C[C@H]2C[C@@H](OC(=O)c2cc(OC)c(OC)c(OC)c2)[C@@H]1OC [RESERPINE]	Compound NOT metabolized	Compound NOT metabolized	Compound NOT metabolized		Compound NOT metabolized	Compound NOT metabolized	Compound NOT metabolized			Compound NOT metabolized	Compound NOT metabolized	Compound NOT metabolized	Compound NOT metabolized	Compound NOT metabolized	Compound NOT metabolized	Compound NOT metabolized	Compound NOT metabolized	Compound NOT metabolized	Compound NOT metabolized	Compound NOT metabolized
C[C@@H]1C[C@H]2[C@@H]3CCC4=CC(=O)C=C[C@]4(C)[C@@]3(F)[C@@H](O)C[C@]2(C)[C@@]1(O)C(=O)CO [DEXAMETHASONE]	Compound NOT metabolized		Compound metabolized		Compound NOT metabolized	Compound NOT metabolized	Compound NOT metabolized	Compound metabolized	Compound NOT metabolized	Compound NOT metabolized	Compound NOT metabolized	Compound NOT metabolized	Compound NOT metabolized	Compound NOT metabolized	Compound metabolized	Compound NOT metabolized	Compound NOT metabolized	Compound NOT metabolized		Compound NOT metabolized
CCc1nc(N)nc(N)c1-c1ccc(Cl)cc1 [PYRIMETHAMINE]	Compound NOT metabolized	Compound NOT metabolized	Compound NOT metabolized	Compound NOT metabolized	Compound NOT metabolized	Compound NOT metabolized	Compound NOT metabolized	Compound NOT metabolized	Compound NOT metabolized	Compound NOT metabolized	Compound NOT metabolized	Compound NOT metabolized	Compound NOT metabolized	Compound NOT metabolized	Compound NOT metabolized	Compound NOT metabolized		Compound NOT metabolized	Compound NOT metabolized	Compound NOT metabolized
